Bounds are passed on as bounds.

What all share (type): cell-based
In assay [1] the test system is Escherichia coli. The assay is described as follows: MIC, test tube serial dilution, Escherichia coli.
In assay [2] the test system is Klebsiella-Aerobacter. In words: MIC, test tube serial dilution, Klebsiella-Aerobacter.
For assay [3], the system named is Proteus vulgaris. The assay is described as follows: MIC, test tube serial dilution, Proteus vulgaris.
Assay [4] relates to Pseudomonas aeruginosa. The assay is described as follows: MIC, test tube serial dilution, Pseudomonas aeruginosa.
The test system of assay [5] is Staphylococcus aureus. In words: MIC, test tube serial dilution, Staphylococcus aureus.
Assay [6] has as its system Proteus morganii. In words: MIC, test tube serial dilution, Proteus morganii.
For assay [7], the system named is Streptococcus faecalis. The assay is described as follows: MIC, test tube serial dilution, Streptococcus faecalis.
[8] abbreviates: strain 1756 (BRL 1 756), 24 hours, 37°C.

For `COC(=O)N1CCN(C(=O)NC(C(=O)N[C@@H]2C(=O)N3[C@@H]2SC(C)(C)[C@@H]3C(=O)O)c2cccs2)C1=O` (stereo partly drawn) [Penicillin No. 20 (Table 3), Sodium D,L-α-[(3-methoxycarbonyl-imidazolidin-2-on-1-yl)-carbonylamino]-α-thienyl(2)-methylpenicillin], the MIC was 4 U/ml in assay [1] (Table 3, strain 14); 8 U/ml in assay [1] (Table 3, strain 183/58); above 256 U/ml in assay [1] (Table 3, strain A 261); 8 U/ml in assay [1] (Table 3, strain C 165); 32 U/ml in assay [2] (Table 3, strain 63); 32 U/ml in assay [2] (Table 3, strain K 10). For the same compound, the MIC in assay [3] (Table 3, strain 1017) is on record as 8 U/ml; in assay [4] (Table 3, strain F 41), 64 U/ml; in assay [4] (Table 3, strain Walter) it was 32 U/ml; in assay [5] (Table 3, strain 133), below 1 U/ml; in assay [5] (Table 3, strain 1756E) it was 64 U/ml; in assay [6] (Table 3, strain 932) it was 32 U/ml. Besides, the MIC in assay [7] (Table 3, ATCC 9790) is 16 U/ml.
In the case of `CN(C)C(=O)N1CCN(C(=O)N[C@@H](C(=O)N[C@@H]2C(=O)N3[C@@H]2SC(C)(C)[C@@H]3C(=O)O)c2ccccc2)C1=O` [Example 6, Sodium D(-)-α-[(3-dimethylaminocarbonyl-imidazolidin-2-on-1-yl)-carbonylamino]-benzylpenicillin], the MIC in assay [1] (strain 183/58, 24 hours, 37°C) is 4 U/ml; in assay [1] (strain A 261, 24 hours, 37°C) it was above 256 U/ml; in assay [2] (strain 63, 24 hours, 37°C), 32 U/ml; in assay [2] (strain K 10, 24 hours, 37°C) it was 16 U/ml; in assay [3] (strain 1017, 24 hours, 37°C), 16 U/ml; in assay [4] (strain Bonn, 24 hours, 37°C), 32 U/ml. Besides, the MIC stood at 32 U/ml in assay [4] (strain Walter, 24 hours, 37°C); 64 U/ml in assay [5] (setting [8]); 64 U/ml in assay [6] (strain 932, 24 hours, 37°C); 32 U/ml in assay [7] (ATCC 9790, 24 hours, 37°C).
Consider `CCOC(=O)NS(=O)(=O)N1CCN(C(=O)N[C@@H](C(=O)N[C@@H]2C(=O)N3[C@@H]2SC(C)(C)[C@@H]3C(=O)O)c2ccccc2)C1=O` [Example 22, Sodium D(-)-α-{[3-(ethoxy-carbonyl-amino-sulphonyl)imidazolidin-2-on-1-yl]-carbonylamino}-benzylpenicillin], for which the MIC in assay [1] (strain 183/58, 24 hours, 37°C) is listed as 8 U/ml; in assay [1] (strain A 261, 24 hours, 37°C), above 256 U/ml; in assay [2] (in µg/mL (unit assumed)) it was 32; in assay [2] (strain 63, 24 hours, 37°C) it was 64 U/ml; in assay [3] (strain 1017, 24 hours, 37°C) it was 16 U/ml; in assay [4] (in µg/mL (unit assumed)), 32. Moreover, the MIC amounted to 16 U/ml in assay [4] (strain Bonn, 24 hours, 37°C); 128 U/ml in assay [5] (setting [8]); 128 µg/mL in assay [6] (unit assumed); 32 µg/mL in assay [7] (unit assumed).
For the compound `COC(=O)N1CCN(C(=O)NC(C(=O)N[C@@H]2C(=O)N3[C@@H]2SC(C)(C)[C@@H]3C(=O)O)c2ccc(Cl)cc2)C1=O` (stereo partly drawn) [Penicillin No. 19 (Table 3), Sodium D,L-α-[(3-methoxycarbonyl-imidazolidin-2-on-1-yl)-carbonylamino]-4-chlorobenzylpenicillin], the MIC was 4 U/ml in assay [1] (Table 3, strain 14); 16 U/ml in assay [1] (Table 3, strain 183/58); above 256 U/ml in assay [1] (Table 3, strain A 261); 8 U/ml in assay [1] (Table 3, strain C 165); 4 U/ml in assay [2] (Table 3, strain 63); 32 U/ml in assay [2] (Table 3, strain K 10). Further, the MIC in assay [3] (Table 3, strain 1017) was 32 U/ml; in assay [4] (Table 3, strain F 41), 64 U/ml; in assay [4] (Table 3, strain Walter), 64 U/ml; in assay [5] (Table 3, strain 1756E), 128 U/ml; in assay [6] (Table 3, strain 932), 4 U/ml; in assay [7] (unit assumed), 32 µg/mL.
`CCS(=O)(=O)N1CCN(C(=O)N[C@@H](C(=O)N[C@@H]2C(=O)N3[C@@H]2SC(C)(C)[C@@H]3C(=O)O)c2ccccc2)C1=O` [Penicillin No. 11 (Table 3), Sodium D(-)-α-[(3-ethylsulphonyl-imidazolidin-2-on-1-yl)-carbonylamino]-benzylpenicillin]: the MIC is below 1 U/ml in assay [1] (Table 3, strain 14); 2 U/ml in assay [1] (Table 3, strain 183/58); 512 U/ml in assay [1] (Table 3, strain A 261); 4 U/ml in assay [1] (Table 3, strain C 165); 16 U/ml in assay [2] (Table 3, strain 63); 16 U/ml in assay [2] (Table 3, strain K 10). Moreover, the MIC in assay [3] (Table 3, strain 1017) was 4 U/ml; in assay [4] (Table 3, strain F 41) it was 64 U/ml; in assay [4] (Table 3, strain Walter), 64 U/ml; in assay [5] (Table 3, strain 133) it was 2 U/ml; in assay [5] (Table 3, strain 1756E), 128 U/ml; in assay [6] (Table 3, strain 932), 16 U/ml. Moreover, the MIC in assay [7] (Table 3, ATCC 9790) came out at 64 U/ml.
With `CN(C(=O)N[C@@H](C(=O)N[C@@H]1C(=O)N2[C@@H]1SC(C)(C)[C@@H]2C(=O)O)c1ccccc1)C(=O)N1CCCS1(=O)=O` [Example 29, Sodium D(-)-α-{3-[N-(1,1-dioxo-isothiazolidin-2-yl)-carbonyl]-3-methyl}-ureido-benzylpenicillin], the MIC in assay [1] (strain 183/58, 24 hours, 37°C) is recorded as 32 U/ml; in assay [1] (strain A 261, 24 hours, 37°C), above 256 U/ml; in assay [1] (strain C 165, 24 hours, 37°C), 16 U/ml; in assay [2] (strain 63, 24 hours, 37°C) it was 64 U/ml; in assay [2] (strain K 10, 24 hours, 37°C) it was 64 U/ml; in assay [3] (strain 1017, 24 hours, 37°C) it was 64 U/ml. Further, the MIC in assay [4] (strain Bonn, 24 hours, 37°C) was 16 U/ml; in assay [4] (strain Walter, 24 hours, 37°C) it was 16 U/ml; in assay [5] (setting [8]) it was 256 U/ml; in assay [6] (unit assumed), 128 µg/mL; in assay [7] (ATCC 9790, 24 hours, 37°C), 16 U/ml.
Turning to `CC(=O)N1CCN(C(=O)NC(C(=O)N[C@@H]2C(=O)N3[C@@H]2SC(C)(C)[C@@H]3C(=O)O)c2cccs2)C1=O` (stereo partly shown) [Penicillin No. 9 (Table 3)], the MIC in assay [1] (Table 3, strain 14) came to 2 U/ml; in assay [1] (Table 3, strain 183/58) it was 8 U/ml; in assay [1] (Table 3, strain A 261), 512 U/ml; in assay [1] (Table 3, strain C 165) it was 8 U/ml; in assay [2] (Table 3, strain 63), 128 U/ml; in assay [2] (Table 3, strain K 10), 32 U/ml. The MIC in assay [3] (Table 3, strain 1017) is 8 U/ml; in assay [4] (Table 3, strain F 41), 64 U/ml; in assay [4] (Table 3, strain Walter) it was 64 U/ml; in assay [5] (Table 3, strain 133), 2 U/ml; in assay [5] (Table 3, strain 1756E), 64 U/ml; in assay [6] (Table 3, strain 932), 8 U/ml. In assay [7] (Table 3, ATCC 9790), the MIC was 64 U/ml.
As to `CC(=O)N1CCN(C(=O)N[C@@H](C(=O)N[C@@H]2C(=O)N3[C@@H]2SC(C)(C)[C@@H]3C(=O)O)c2ccccc2)C1=O` [Example 1, Sodium D(-)-α-[(3-acetyl-imidazolidin-2-on-1-yl)-carbonylamino]-benzylpenicillin], the MIC in assay [1] (strain 183/58, 24 hours, 37°C) worked out at 3 U/ml; in assay [1] (strain A 261, 24 hours, 37°C), 400 U/ml; in assay [2] (strain 63, 24 hours, 37°C) it was 25 U/ml; in assay [2] (strain K 10, 24 hours, 37°C), 100 U/ml; in assay [3] (unit assumed) it was 6 µg/mL; in assay [4] (strain Bonn, 24 hours, 37°C), 25 U/ml. Further, the MIC in assay [4] (strain Walter, 24 hours, 37°C) is 50 U/ml; in assay [5] (setting [8]), 400 U/ml; in assay [6] (unit assumed), 6 µg/mL; in assay [7] (ATCC 9790, 24 hours, 37°C), 25 U/ml.
Take `CC1(C)S[C@@H]2[C@H](NC(=O)[C@H](NC(=O)N3CCN(C(=O)N4CCCCC4)C3=O)c3ccccc3)C(=O)N2[C@H]1C(=O)O` [Example 9, Sodium D(-)-α-[(3-piperdyl-N-carbonyl-imidazolidin-2-on-1-yl)-carbonylamino]-benzylpenicillin]: the MIC is 4 U/ml in assay [1] (strain 183/58, 24 hours, 37°C); above 256 U/ml in assay [1] (strain A 261, 24 hours, 37°C); 8 in assay [2] (in µg/mL (unit assumed)); 32 µg/mL in assay [3] (unit assumed); 32 in assay [4] (in µg/mL (unit assumed)); 64 U/ml in assay [4] (strain Bonn, 24 hours, 37°C). In addition, the MIC was above 256 U/ml in assay [5] (setting [8]), 32 µg/mL in assay [6] (unit assumed) and 128 µg/mL in assay [7] (unit assumed).
On to `CC1(C)S[C@@H]2[C@H](NC(=O)C(NC(=O)N3CCN(S(C)(=O)=O)C3=O)c3ccc(Cl)cc3)C(=O)N2[C@H]1C(=O)O` (stereo partly drawn) [Penicillin No. 2 (Table 3), Sodium D,L-α-[(3-methylsulphonyl-imidazolidin-2-on-1-yl)-carbonylamino]-4-chlorobenzylpenicillin], for which the MIC in assay [1] (Table 3, strain 14) was below 1 U/ml; in assay [1] (Table 3, strain 183/58) it was 4 U/ml; in assay [1] (Table 3, strain A 261), 256 U/ml; in assay [1] (Table 3, strain C 165), 4 U/ml; in assay [2] (Table 3, strain 63) it was 128 U/ml; in assay [2] (Table 3, strain K 10), 32 U/ml. For the same compound, the MIC in assay [3] (Table 3, strain 1017) is 8 U/ml; in assay [4] (Table 3, strain F 41), 128 U/ml; in assay [4] (Table 3, strain Walter), 64 U/ml; in assay [5] (Table 3, strain 133), below 1 U/ml; in assay [5] (Table 3, strain 1756E), 64 U/ml; in assay [6] (Table 3, strain 932), 8 U/ml. Besides, in assay [7] (Table 3, ATCC 9790), the MIC is recorded as 64 U/ml.
Consider `CC1(C)S[C@@H]2[C@H](NC(=O)C(NC(=O)N3CCN(S(C)(=O)=O)C3=O)c3c(Cl)cccc3Cl)C(=O)N2[C@H]1C(=O)O` (stereo partly drawn) [Penicillin No. 5 (Table 3), Sodium D,L-α-[(3-methylsulphonyl-imidazolidin-2-on-1-yl)-carbonylamino]-2,6-dichloro-benzylpenicillin], for which the MIC was 256 U/ml in assay [1] (Table 3, strain 14); 256 U/ml in assay [1] (Table 3, strain 183/58); at least 256 U/ml in assay [1] (Table 3, strain A 261); at least 256 U/ml in assay [1] (Table 3, strain C 165); at least 256 U/ml in assay [2] (Table 3, strain 63); at least 256 U/ml in assay [2] (Table 3, strain K 10). The MIC in assay [3] (Table 3, strain 1017) is on record as 256 U/ml; in assay [4] (Table 3, strain F 41) it was at least 256 U/ml; in assay [4] (Table 3, strain Walter) it was at least 256 U/ml; in assay [5] (Table 3, strain 133), 4 U/ml; in assay [5] (Table 3, strain 1756E) it was at least 256 U/ml; in assay [6] (Table 3, strain 932), 32 U/ml. Also, the MIC in assay [7] (Table 3, ATCC 9790) is given as 256 U/ml.

These data come from patent US3983105A, “Penicillins” (Bayer Aktiengesellschaft, priority 1971, dated 1976).
